Experimental data published in patent US11351178B2, “Selective HDAC6 inhibitors” (ITALFARMACO S.P.A., priority 2017, dated 2022).
“Also recorded” adds a separate entry of the source.

Assays:
[1] = tested on: CD4 and CD8 T cells of CT-26 bearing mice; test: Ex vivo stimulation of splenocytes with CT-26 tumor peptides, IFN-γ and TNF-α by CD4 and CD8 T cells (ELISPOT); format: in vivo, BALB/c mice; conditions: splenocytes stimulated with CT-26 specific peptides, FIGS. 4 and 5
Experimental: Splenocytes of animal treated with Compounds 8 and 10 and the combination with anti PD-1 Ab were stimulated with CT-26 derived tumor peptides and the production of IFN-γ and TNF-α by CD4 T cells was quantified by ELISPOT.
Splenocytes of animal treated with Compound 8 and 10 and the combination with anti PD-1 Ab were stimulated with CT-26 derived tumor peptides and the production of IFN-γ and TNF-α by CD8 Tcells was quantified by ELISPOT.
Adult BALB/c mice were injected s.c. with 1×10^6 CT26 tumor cells (diluted to 100 ul with phosphate-buffered saline). One week later, mice were given daily compounds 8 and 10 p.o. at 50 mg/Kg and/or injected with anti-PD1 antibody at 10 mg/Kg. At time of sacrifice, spleens were taken to analyze ex vivo, the tumor immune response. Spleen cells were stimulated with a mixture of CT-26 tumor specific peptides recognized in the context of both MHC I and MHC II. Thus, using this ex vivo stimulation, a specific tumor response mediated by CD4 and CD8 T cells can be detected.
The results are shown in FIGS. 4 and 5 where the percentage of CD4 and CD8 T cells that produce IFN-γ and TNF-α are indicated for each treatment group.

[2] = tested on: EMT6, CT26, 4T1 murine tumors; test: In vivo murine tumor models (FIG. 2); design: species or system mouse; conditions: compounds 50 mg/kg oral gavage once a day 5 days a week, anti PD-1 10 mg/kg ip three times a week
From the text: Four different immune-oncology mouse models of cancer were used to evaluate the in vivo efficacy of compounds 8 and 10 of this invention. In this experiment, we compared the efficacy of an anti PD-1 antibody with that shown by the HDAC6 inhibitors. Anti PD-1 targets the immune checkpoint PD-1/PD-L1 axis and is an established immunotherapy in a growing number of malignancies (Pardoll D. M., Nature Reviews Cancer, 2012, 12: 252-264).
Tumors were induced in immunocompetent mice using the following cell lines: • EMT6 (murine breast cancer) • CT26 (murine colon cancer • 4T1 (triple negative murine breast cancer)
• Therapeutic treatment started when tumor nodules reached approximately 3 mm in diameter. • Compounds 8 and 10 were administered by oral gavage once a day for 5 days a week at 50 mg/kg. • Anti PD-1 antibody was administered three times a week by ip injection at 10 mg/kg.

[3] = tested on: PD-L1 expression in iDC (GMCSF-IL-4 stimulated monocytes); test: Inhibition of the expression of PD-L1 in in vitro derived dendritic cells; format: cell-based; conditions: human monocytes, GMCSF-IL-4, 5 days, FIG. 1
Experimental: FIG. 1: The inhibition of PD-L1 expression in iDC (GMCSF-IL-4 stimulated monocytes). Human monocytes were treated with HDAC6 inhibitors and stimulated with GMCSF-IL-4 for 5 days. After incubation, cells were collected and labelled with an anti PD-L1 antibody. Cells were then washed and fluorescence data were acquired using a flow cytometer (BD FACSVerse). Values on the graphs represent the mean of 3 experiment carried out on 3 different donors (n=3). The expression of PD-L1 is represented by the geometric mean of the fluorescence. *=P<0.05 determined by Student's t test.
To obtain in vitro derived DCs, human monocytes purified from PBMC, were treated for 5 days with GMCSF (50 ng/ml) and IL-4 (10 ng/ml) in the presence of two selective HDAC6 inhibitors described in this invention (compounds 10 and 19) and the HDAC inhibitor example 43 of WO 2012/106343. Control cells were treated with the inhibitor's vehicle. This procedure induces the formation of immature dendritic cells (iDCs) that express PD-L1 (Brown J A et al. J Immunol. 2003; 170:1257-66). After 5 days, iDCs were analyzed for the expression of the inhibitory marker […].

Structure (SMILES) | ex vivo tumor specific T cell immune response [1] | tumor growth in vivo [2] | PD-L1 expression in iDC [3]
O=C(NO)c1ccc(Cn2nnnc2-c2cccs2)cc1 [comp. 8, N-hydroxy-4-((5-(thiophen-2-yl)-1H-tetrazol-1-yl)methyl)benzamide] | greater neo antigen immune response | comparable efficacy in reducing tumor growth; also recorded: reduce tumor growth in vivo | –
Cn1c(Sc2ccc(C(=O)NO)cc2)nnc1-c1cccs1 [comp. 10, N-hydroxy-4-((4-methyl-5-(thiophen-2-yl)-4H-1,2,4-triazol-3-yl)thio)benzamide] | greater neo antigen immune response | comparable efficacy in reducing tumor growth; also recorded: reduce tumor growth in vivo | reduced the PD-L1 expression in a statistically significant way
O=C(NO)c1cc(F)c(Cn2nnc(-c3ccco3)n2)c(F)c1 [comp. 19, 3,5-difluoro-4-((5-(furan-2-yl)-2H-tetrazol-2-yl)methyl)-N-hydroxybenzamide] | – | – | reduced the PD-L1 expression in a statistically significant way
